This note sets out measurements from patent US20040110963A1, “Novel hydrazones” (priority 2001, published 2004).

Converted amounts (≈) assume the structure as drawn.

One test concerns Escherichia coli DC2. As to the kind of experiment: In vitro antibacterial activity (MIC, NCCLS M7-A5 dilution susceptibility test). As to conditions: for MIC: read-out: Minimum Inhibitory Concentration (MIC) Escherichia coli DC2. Type of test: cell-based. How it is done: (§1) Antimicrobial susceptibility testing was performed in accordance with the National Committee for Clinical Laboratory Standards (NCCLS) procedure [M7-A5, 2001: Methods for Dilution Antimicrobial Susceptibility Tests for Bacteria That Grow Aerobically; Approved Standard-Fifth Edition American National Standard].

In test [1] the test system is Staphylococcus aureus 101. The description is as above. Type of test: cell-based. As to conditions: for MIC: read-out: Minimum Inhibitory Concentration (MIC) Staphylococcus aureus 101. As to the method: as §1
The test system of test [2] is Staphylococcus aureus ATCC25923. Described as above. The class given is cell-based. As to conditions: for MIC: read-out: Minimum Inhibitory Concentration (MIC) Staphylococcus aureus ATCC25923. How it is done:
as §1

For test [3], the target named is enzyme I of the bacterial phosphotransferase system (PTS) (Escherichia coli, UniProt P08839). The test can be described thus: Assay for Enzyme I dependent PEP: peptide phosphotransferase activity (LDH-coupled, NADH read-out at 340 nm). Type of test: biochemical. As to conditions: enzyme I 0.75 μM, 0.8 mM PEP, pH 7.5; read-out: Inhibition of PTS (IC50 in μM). The text has this: The determination of activity of a compound of the present invention in the PTS may be summarized as follows:
Assay for Enzyme I Dependent PEP:
Peptide Phosphotransferase Activity. [formula]
To find inhibitors of Enzyme I of the PTS by high throughput screening, an in vitro assay based on spectrophotometric read out at 340 nm has been set up. The assay comprises of three major components, purified enzyme I in catalytic amounts, Phosphoenol Pyruvate (PEP) as the phosphoryl donor substrate and purified HPr as the phosphoryl acceptor substrate.
The assay couples the formation of pyruvate formed from PEP to lactate, catalyzed by lactate dehydrogenase. The disappearance of NADH, cofactor required by lactate dehydrogenase, is determined spectrophotometerically at 340 nm. The assay is done in a U-shaped microtiter plate format, and quantitation is done using microplate absorbance reader.
100 μl reaction mixture contained 0.8 mM PEP, 0.2 mM NADH, 3 μg lactate dehydrogenase (Boehringer Mannheim), 50 mM KPi pH=7.5, 2.5 mM dithiothreitol, 2.5 mM NaF, 5 mM MgCI2, and between 50 and 100 μM of the compound. The reaction is started by the addition of enzyme I (final concentration 0.75 μM). In a control experiment the compound is replaced by DMSO.

Regarding `O=C(NN=Cc1cc(Cl)cc(Cl)c1O)c1cccc(Cl)c1-n1cccc1` [Example 43, 3-Chloro-2-pyrrol-1-yl-N′-(2-hydroxy-3,5-dichloro-benzylidene)-benzohydrazide], the MIC with Escherichia coli DC2 was greater than 128 µg/mL; in test [1], 2 µg/mL (≈ 4.89 µM); in test [2], 2 µg/mL (≈ 4.89 µM).

In the case of `COc1ccc(C(=O)NN=Cc2ccc(O)c(O)c2O)cc1` [Example 39, 4-Methoxy-N′-(2,3,4-trihydroxy-benzylidene)-benzohydrazide], the MIC (in the test with Escherichia coli DC2; in test [1]; in test [2]) was 64 µg/mL (≈ 212 µM) each time.

As to `O=C(NN=Cc1cc(O)c(O)cc1O)c1ccccc1-n1cccc1` [Example 44, 2-Pyrrol-1-yl-N′-(2,4,5-trihydroxy-benzylidene)-benzohydrazide], the MIC with Escherichia coli DC2 turned out to be 128 µg/mL (≈ 379 µM); in test [1], 64 µg/mL (≈ 190 µM); in test [2], 64 µg/mL (≈ 190 µM).

For the molecule `O=C(NN=Cc1cc(Cl)cc(Cl)c1O)c1ccc(Cl)c(C(F)(F)F)c1` [Example 46, 4-Chloro-3-trifluoromethyl-N′-(2-hydroxy-3,5-dichloro-benzylidene)-benzohydrazide], the MIC in the test with Escherichia coli DC2 is greater than 128 µg/mL; in test [1], 128 µg/mL (≈ 311 µM); in test [2], 128 µg/mL (≈ 311 µM).

`O=C(NN=Cc1ccc(O)c(O)c1O)c1cccc(Cl)c1-n1cccc1` [Example 42, 3-Chloro-2-pyrrol-1-yl-N′-(2,3,4-trihydroxy-benzylidene)-benzohydrazide]: the MIC came out at 128 µg/mL (≈ 344 µM) with Escherichia coli DC2, 32 µg/mL (≈ 86.1 µM) in test [1] and 32 µg/mL (≈ 86.1 µM) in test [2].

Consider `O=C(NN=Cc1cccc(O)c1O)c1ccc(Cl)c(Cl)c1` [Example 40, 3,4-Dichloro-N′-(2,3-dihydroxy-benzylidene)-benzohydrazide], for which the MIC was greater than 128 µg/mL in the test on Escherichia coli DC2, 4 µg/mL (≈ 12.3 µM) in test [1] and 4 µg/mL (≈ 12.3 µM) in test [2].

On to “3,5-Bis-(trifluoromethyl)-N′-(2,3,4-trihydroxy-benzylidene)-benzohydrazide [Example 41]”, for which the “Minimum Inhibitory Concentration (MIC) Escherichia coli DC2” value with Escherichia coli DC2 is listed as “na (na means not active at concentrations less than 128 μg/ml)”. For the same molecule, the “Minimum Inhibitory Concentration (MIC) Staphylococcus aureus 101” value in test [1] was 64 micrograms/ml. Also, the “Minimum Inhibitory Concentration (MIC) Staphylococcus aureus ATCC25923” value in test [2] is 64 micrograms/ml.

As to `O=C(NN=Cc1ccc(O)c(O)c1O)c1ccc(Cl)c(C(F)(F)F)c1` [Example 45, 4-Chloro-3-trifluoromethyl-N′-(2,3,4-trihydroxy-benzylidene)-benzohydrazide], the MIC in the test on Escherichia coli DC2 was 2 µg/mL (≈ 5.34 µM); in test [1], 1 µg/mL (≈ 2.67 µM); in test [2], 0.5 µg/mL (≈ 1.33 µM).

Broadly, the IC50 is the point on the concentration scale where inhibition reaches its midpoint. With `O=C(NN=Cc1ccc(O)cc1O)c1cccc(C(F)(F)F)c1` [Example 6, 3-Trifluoromethyl-N′-(2,4-dihydroxy-benzylidene)-benzohydrazide], the IC50 in test [3] was 10 µM. The MIC was 32 µg/mL (≈ 98.7 µM) with Escherichia coli DC2 and greater than 128 µg/mL in test [2].

As to `O=C(NN=Cc1cc(O)ccc1O)c1ccccc1` [Example 1, N′-(2,5-Dihydroxy-benzylidene)-benzohydrazide], in test [3], the IC50 is 15 µM. In addition, the MIC with Escherichia coli DC2 was 128 µg/mL (≈ 499 µM); in test [2], 64 µg/mL (≈ 250 µM).
